What was measured:
TNF-α = assay: Expression level of inflammation factor in BAL fluid (ELISA); format: in vivo, mouse
Protocol: (§1) BALB/c male mice (7-week-old, 20 g to 25 g, Orient Bio) were divided into groups of 6 mice, and as assigned to 6 mice in each group, and Alum was diluted in components of air pollutants, i.e., 10 mg/ml of coal combustible materials, 10 mg/ml of fly ash, and 5 mg/ml of diesel exhaust particle (DEP) to have a final concentration of 1% so that a final concentration of each component was 1.5 mg/ml for coal combustible material/fly ash and 5 mg/ml for DEP in a mixture. Then, to all groups except for a normal group, the mixture was directly injected into the airway and nose of the experimental animals by 50 pl each on the 4th, 7th and 10th says of the experiment.
(§2) For a positive control group treated with dexamethasone (Sigma D2915), administed at 3 mg/kg BW of the mouse model, the Lactobacillus plantarum KC3 strain (KC3) was diluted at a concentration of 1×10^9CFU/cell (about 2 mg/kg BW), the Leonurus japonicus extract was diluted in distilled water at a dose of 100 mg/kg of BW, and then orally administered at a dose of 300 pl every day (for 11 days). For a mixed group including the KC3 strain and the Leonurus japonicus extract, the solution was mixed and diluted at a ratio of 1:1 by the dry weight as in Examples above, and then orally administered at a dose of 300 pl every day (for 11 days) (the cell amount in the KC3 included in the mixture was 0.5×10^9 CFU/cell, and the dose of the Leonurus japonicus extract was set at 50 mg/kg BW). The oral administration was performed at a dose of 300 μl per mouse, and an autopsy was performed on the 12th day after the start of the experiment to recover the BAL solution.
(§3) An experiment was carried out to confirm whether the expression level of inflammation factors in the BAL fluid can be lowered, when treated with the Lactobacillus plantarum KC3 strain, the Leonurus japonicus extract, or the mixture thereof.
(§4) The experiment was carried out in the same manner as in Experimental Example 1-3, except that the number of cells in BAL fluid was measured. Instead of measuring the number of cells, ELISA was performed to measure the expression level of respiratory inflammation factors, such as IL-17A, TNF-α, and CXCL-1, expressed in BAL fluid. In detail, IL-17A antibodies (M1700, R&D Systems, Minneapolis, USA), TNF-α antibodies (MTA00B, R&D Systems, Minneapolis, USA), and CXCL-1 antibodies (MKCOOB, R&D Systems, Minneapolis, USA) were diluted with a buffer solution, coated microwells, and then cultured at 4° C. for 16 hours. Each well was washed with a buffer solution three times, and 10-fold diluted serum was dispensed at 100 μl per well. After being left at room temperature for 1 hour, the wells were washed twice. Then, 100 μl of Avidin-HRP-conjugated antibodies (DY007, R&D Systems, Minneapolis, USA) was treated thereon, and the wells were left again at room temperature for 1 hour, followed by washing again.
(§5) Tetramethylbenzidine (TMB) base solution (DY007, R&D Systems, Minneapolis, USA) was dispensed at 100 μl per well, and the well plate was left in the dark for 30 minutes. After 50 μl of a stopping solution (DY007, R&D Systems, Minneapolis, USA) was treated thereon, absorbance of the cells was measured at 450 nm.

CXCL-1 = assay: as above; format: in vivo, mouse
Protocol: as §1, §2, §3, §4, §5

IL-17A = assay: as above; format: in vivo, mouse
Protocol: as §1, §2, §3, §4, §5

[1] = test system: symmetric dimethylarginine (SDMA); assay: Measurement of SDMA as COPD biomarker in blood (ELISA); format: in vivo, mouse
Protocol: as §1
(§6) For a positive control group treated with dexamethasone (Sigma D2915), administed at 3 mg/kg BW of the mouse model, the Lactobacillus plantarum KC3 strain (KC3) was diluted at a concentration of 1×10^9CFU/cell (about 2 mg/kg BW), the Leonurus japonicus extract was diluted in distilled water at a dose of 100 mg/kg of BW, and then orally administered at a dose of 300 pl every day (for 11 days). […]
After being left at room temperature for 1 hour, the wells were washed twice. […] After 50 μl of a stopping solution (DY007, R&D Systems, Minneapolis, USA) was treated thereon, absorbance of the cells was measured at 450 nm. […]

[2] = test system: total number of cells in BAL fluid; assay: Total number of cells in BAL fluid, mouse model having respiratory damage caused by air pollutants; format: in vivo
Protocol: as §1, §6

neutrophils = assay: Ratio of number of neutrophils to total number of cells in BAL fluid (Diff-Qick staining); format: in vivo, mouse
Protocol: as §1, §6

[3] = BALB/c mice, air pollutant-induced, oral daily 11 days, dexamethasone 3 mg/kg, KC3 1×10^9 CFU, Leo 100 mg/kg, mixture 0.5×10^9 CFU + 50 mg/kg
[4] = BALB/c mice, air pollutant-induced, oral daily 11 days, BAL day 12, dexamethasone 3 mg/kg, KC3 1×10^9 CFU, Leo 100 mg/kg, mixture 0.5×10^9 CFU + 50 mg/kg

C[C@@H]1C[C@H]2[C@@H]3CCC4=CC(=O)C=C[C@]4(C)[C@@]3(F)[C@@H](O)C[C@]2(C)[C@@]1(O)C(=O)CO [Positive control group, dexamethasone]
TNF-α Concentration (TNF-α; [3]): 64.5 ± 7.7 pg/mL
TNF-α inhibition rate (%) based on induced group (TNF-α; same dosing): (46%)
CXCL-1 Concentration (CXCL-1; [3]): 122 ± 12.4 pg/mL
CXCL-1 inhibition rate (%) based on induced group (CXCL-1; same dosing): (39%)
IL-17A Concentration (IL-17A; [3]): 19.7 ± 6.3 pg/mL
IL-17A inhibition rate (%) based on induced group (IL-17A; same dosing): (41%)
SDMA level (μg/mL) in serum [1, 3]: 10.1 ± 1.9 µg/mL
Inhibition rate (based on induced group), SDMA ([1]; serum, same dosing): 41%
Total number of BAL cells (×10^4 cells/ml) [2, 4]: 71.2 ± 8.3 ×10^4 cells/ml
Inhibition rate (based on induced group), total BAL cells ([2]; same dosing as total BAL cells, based on induced group): 54%
Ratio of number of neutrophils to total number of BAL cells (400X) (neutrophils; [4]): 35.5 ± 6.1
Inhibition rate (based on induced group), neutrophil ratio (neutrophils; same dosing, based on induced group): 50%

From patent publication US20230147942A1, “PHARMACEUTICAL COMPOSITION COMPRISING NEW LACTOBACILLUS PLANTARUM KC3 STRAIN AND LEONURUS JAPONICUS EXTRACT AS ACTIVE INGREDIENTS FOR PREVENTING OR TREATING RESPIRATORY DISEASE AND USE THEREOF” (KT&G CORPORATION, priority 2020, published 2023)
